{"source": "patent US6784153B1", "about": "“Methods of homing molecules to lung using membrane dipeptidase” (The Burnham Institute, priority 1998, dated 2004)", "key": {"liver": {"test_system": "liver", "test": "in vivo panning of X7 library, liver", "design": "species or system mice", "procedure": "(§1) Following various in vivo panning screens, hundreds of thousands to millions of phage expressing homing peptides were recovered from the respective organ or tissue. Generally, the phage collected from a round of in vivo panning were plated on agar, about 250 to 300 clones were selected, grown in 5 ml cultures, then pooled and readministered for a subsequent round of in vivo panning (“regular method”). However, in some experiments, 1000 clones were selected, grown in 2 ml cultures, then pooled and administered for a subsequent round of screening; or the entire agar plate was scraped and all of the phage were cultured together and administered for a subsequent round of screening. The peptide inserts of various isolated phage were determined such that, of the millions of phage that homed, only a small number of sequences were identified.\nAlso provided are liver homing peptides. Such peptides were identified by injection of an X7 (SEQ ID NO: 29) library into mice. The peptides were isolated by the regular method (see Example II, Table 1, and Table 11, below).\n(§2) Organ samples were washed 3 times with ice cold DMEM-PI containing 1% bovine serum albumin (BSA), then directly incubated with 1 ml K91-kan bacteria for 1 hr. Ten ml NZY medium containing 0.2 μg/ml tetracycline (NZY/tet) was added to the bacterial culture, the mixture was incubated in a 37° C. shaker for 1 hr, then 200 μl aliquots were plated in agar plates containing 40 μg/ml tetracycline (tet/agar).\nApproximately 250 to 300 individual bacterial colonies containing phage recovered from the various organs or tissues were grown for 16 hr in 5 ml NZY/tet. In some experiments, approximately 1000 individual bacteria containing phage were picked and the phage were amplified in 2 ml of NZY/tet or the entire plate containing phage was scraped, pooled and grown in bulk and processed for injection. […] Phage DNA was purified from individual bacterial colonies obtained and the DNA sequences encoding the peptides expressed by selected phage were determined (see Koivunen et al., supra, 1994b)."}, "murine MDP": {"molecular_target": "T1, murine MDP (Mus musculus, UniProt P31428)", "T1 construct": "The amplified 1.3 kb murine MDP cDNA was digested with KpnI and XbaI, and inserted into the same sites of the pcDNA3 expression vector; expressed in transfected cells; host or cells: COS-1 cells, pcDNA3 expression vector", "T1 sequence (P31428 17-384)": "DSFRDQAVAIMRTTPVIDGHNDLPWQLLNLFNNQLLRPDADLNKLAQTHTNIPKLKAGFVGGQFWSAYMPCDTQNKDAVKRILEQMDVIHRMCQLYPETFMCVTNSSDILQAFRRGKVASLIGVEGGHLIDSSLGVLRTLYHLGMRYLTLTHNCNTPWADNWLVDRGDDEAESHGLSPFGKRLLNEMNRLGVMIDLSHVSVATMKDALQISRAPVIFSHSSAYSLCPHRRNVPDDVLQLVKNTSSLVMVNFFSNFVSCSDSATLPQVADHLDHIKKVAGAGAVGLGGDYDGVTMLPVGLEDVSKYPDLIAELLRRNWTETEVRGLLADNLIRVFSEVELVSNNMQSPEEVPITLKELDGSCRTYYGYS", "test": "phage binding to COS-1 cells transfected with MDP", "conditions": "5×10^6 COS-1 cells, 10^10 TU phage", "procedure": "The COS-1 cell line, which is known to have low or no detectable level of MDP activity, has been used extensively to study MDP structure and function (Keynan et al., supra, 1996; Keynan et al., Biochem, J. 326:47-51 (1997)). COS-1 cells were trasfected with murine MDP and used to assay binding to SEQ ID NOS: 1 and 2 as described below.\nFor transfection into COS-1 cells, a murine MDP expression vector was prepared as follows. Total mouse lung RNA was isolated using Qiagen RNA purification columns (Qiagen; Santa Clarita, Calif.) and used as a template for first strand cDNA synthesis with reverse transcriptase and a mixture of random hexamers and poly-dT oligonucleotides (GIBCO/BRL; Grand Island, N.Y.). Mouse MDP cDNA (Pasqualini et al., J. Cell Biol. 130:1189-1196 (1995)) was amplified from the cDNA pool by PCR using the oligonucleotide pair: […] (SEQ ID NO: 446), which contains a KpnI adaptor, and […] (SEQ ID NO: 447), which contains an XbaI adaptor, using Taq polymerase from GIBCO/BRL. The amplified 1.3 kb murine MDP cDNA was digested with KpnI and XbaI, and inserted into the same sites of the pcDNA3 expression vector (Invitrogen; Carlsbad, Calif.) using DNA restriction enzymes and T4 DNA ligase from New England Biolabs (Beverly, Mass.). Successful cloning of the murine MDP cDNA was confirmed by DNA sequencing. Transfection of the COS-1 cells was performed with the Superfect Reagent from Qiagen as recommended by the manufacturer.\nPhage binding to COS-1 cells transfected with MDP was determined as follows. Briefly, 10^7 COS-1 cells were transfected with 10 μg of either the MDP expression vector or the vector alone. After 48 hours, cells were scraped gently from the dish, washed once, and subjected to the phage binding assay or membrane dipeptidase activity assay described above. For the phage binding assay, 5×10^6 cells and 10^10 transducing units (TU) of phage input were used. For measurement of membrane dipeptidase activity, 10^6 cells were lysed in 100 μl of PBS/octylglycoside without protease inhibitors. A 10 μl aliquot of the extract was used to measure MDP activity."}, "lung": {"test_system": "lung", "test": "in vivo homing of phage displaying peptides to lung", "design": "species or system mice", "procedure": "(§3) For lung and pancreas, a mixture of phage libraries containing 10^10 TU was diluted in 200 μl DMEM and injected into the tail vein of anesthetized BALB/c mice (2 month old; Harlan Sprague Dawley; San Diego Calif.); AVERTIN (0.017 ml/g) was used as anesthetic (Pasqualini and Ruoslahti, supra, 1996). After 1-4 minutes, mice were snap frozen in liquid nitrogen or, after about 5 minutes of phage circulation, the mice were perfused through the heart with 5-10 ml of DMEM (SIGMA; St. Louis Mo.). To recover the phage, the organs from the perfused mice or partially thawed organs from snap frozen mice were collected and weighed, then were homogenized in 1 ml DMEM-PI (DMEM containing protease inhibitors (PI); phenylmethyl sulfonyl fluoride (PMSF; 1 mM), aprotinin (20 μg/ml), leupeptin (1 μg/ml)).\nas §2\n(§4) Approximately 250 to 300 individual bacterial colonies containing phage recovered from the various organs or tissues were grown for 16 hr in 5 ml NZY/tet. In some experiments, approximately 1000 individual bacteria containing phage were picked and the phage were amplified in 2 ml of NZY/tet or the entire plate containing phage was scraped, pooled and grown in bulk and processed for injection. Where phage were cultured separately, the cultures were pooled and the phage were injected into mice or rats as described above for a second round of in vivo panning. In some experiments, a third or fourth round of panning was performed. Phage DNA was purified from individual bacterial colonies obtained and the DNA sequences encoding the peptides expressed by selected phage were determined (see Koivunen et al., supra, 1994b).\nAfter two or three rounds of in vivo panning of mice injected with a cyclic CX3CX3CX3C (SEQ ID NO: 25) or a cyclic CX6C (SEQ ID NO: 26) phage display library, four peptides that homed to lung were identified.\nTo determine the specificity of lung homing of the individual peptides identified, phage displaying the peptides were amplified individually, diluted to the same input titer and administered to mice. Following administration, control kidney and brain organ was removed and the number of TU of phage in lung, kidney and brain was determined. The results shown in FIG. 2 reveal that 10× and 35× more phage having the peptide sequence CGFECVRQCPERC (SEQ ID NO: 1; GFE-1) bound to lung than to kidney and brain, respectively. […] The lung homing peptides CGFECVRQCPERC (SEQ ID NO: 1; GFE-1), CGFELETC (SEQ ID NO: 2; GFE-2), CTLRDRNC (SEQ ID NO: 15) and CIGEVEVC (SEQ ID NO: 16) are enriched in lung at 35×, 9×, 6× and 5×, respectively, over unselected phage (see FIG. 2)."}, "adrenal gland": {"test_system": "adrenal gland", "test": "in vivo panning of X7 library, adrenal gland", "design": "species or system mice", "procedure": "as §1\nThe invention also provides adrenal gland homing peptides such as LMLPRAD (SEQ ID NO: 27) and LPRYLLS (SEQ ID NO: 28), which share a LPR motif (see Table 11), or the peptides R(Y/F)LLAGG (SEQ ID NO: 404) and RYPLAGG (SEQ ID NO: 389), which share the motif LAGG (SEQ ID NO: 430; see Table 10). The exemplified adrenal gland homing peptides were identified by injection of an X7 (SEQ ID NO: 29) library into mice. The peptides were isolated by the regular method.\nas §2\nApproximately 250 to 300 individual bacterial colonies containing phage recovered from the various organs or tissues were grown for 16 hr in 5 ml NZY/tet. […] Phage DNA was purified from individual bacterial colonies obtained and the DNA sequences encoding the peptides expressed by selected phage were determined (see Koivunen et al., supra, 1994b)."}, "pancreas [1]": {"test_system": "pancreas", "test": "in vivo homing of phage displaying peptides to pancreas", "design": "species or system mice", "procedure": "as §3, §2, §4\nAfter two or three rounds of in vivo panning of mice injected with a cyclic CX7C (SEQ ID NO: 24) phage display library, various pancreas homing peptides were identified (Table 3). In particular, the peptide sequence SWCEPGWCR (SEQ ID NO: 4) appeared repeatedly in the pancreas. To determine the specificity of SWCEPGWCR (SEQ ID NO: 4), a phage displaying the sequence was amplified individually, diluted to the same input titer and administered to mice. Following administration, control brain organ was removed and the number of TU of phage in each pancreas and was determined."}, "uterus": {"test_system": "uterus", "test": "homing of pancreas homing phage to uterus", "assay_type": "in vivo, mice", "procedure": "(§5) Similar experiments were performed in pancreas using phage displaying the pancreas homing peptide, SWCEPGWCR (SEQ ID NO: 4). In these experiments, histological samples of the pancreas as well as control organs and tissues including lung and skin were prepared and examined by immunostaining as described above. […] Moreover, after intravenous injection of phage displaying SWCEPGWCR (SEQ ID NO: 4), the phage was recovered from uterus at a 6× higher level in comparison to unselected phage. Thus, SWCEPGWCR (SEQ ID NO: 4) homes to both pancreas and uterus."}, "pancreas [2]": {"test_system": "pancreas", "test": "immunohistologic analysis of pancreas homing phage", "assay_type": "in vivo, mice", "procedure": "Phage displaying homing peptides were detected in lung, pancreas and skin by immunostaining histologic sections obtained 5 min after administration of phage expressing a lung, pancreas or skin homing peptide (“peptide-phage”) to a mouse. Following administration of the peptide-phage, mice were handled as described above and various organs, including lung, pancreas and skin, were removed and fixed in Bouin's solution (SIGMA). Histologic sections were prepared and reacted with anti-M13 (phage) antibodies (Pharmacia Biotech; see U.S. Pat. No. 5,622,699, supra, 1997; Pasqualini and Ruoslahti, supra, 1996). Visualization of the bound anti-M13 antibody was performed using a second antibody conjugated to peroxidase (SIGMA) according to the manufacturer's instructions.\nas §5"}, "[3]": {"conditions": "individually amplified phage, FIG. 2"}}, "note": "“Also recorded” adds a separate entry of the source.", "data": [{"substance": "SRRFVGG [peptide from phage recovered from liver]", "values": [{"measurement": "% OF MOTIF AMONG ALL CLONES", "setting": "liver", "result": 6, "unit": "%"}]}, {"substance": "CGFELETC [lung homing peptide]", "values": [{"measurement": "phage bound to MDP transfected cells than to mock transfected cells", "setting": "murine MDP", "result": "also bound MDP transfected cells"}, {"measurement": "% OF MOTIF AMONG ALL CLONES", "setting": "lung; LUNG", "result": 5, "unit": "%"}, {"measurement": "LUNG/BRAIN RATIO", "setting": "lung; LUNG section", "result": 9}, {"measurement": "homing of lung homing phage to control kidney or brain", "setting": "lung; control organs", "result": "few phage detected in kidney or brain; also recorded: no selective homing to kidney or brain was detected"}, {"measurement": "enriched in lung over unselected phage", "setting": "lung; [3]", "result": 9, "unit": "×"}, {"measurement": "phage bound to lung than to brain", "setting": "lung; [3]", "result": 20, "unit": "×"}, {"measurement": "phage bound to lung than to kidney", "setting": "lung; [3]", "result": 12, "unit": "×"}, {"measurement": "enrichment in lung as compared to unselected phage", "setting": "lung; mouse, in vivo", "result": 9, "unit": "fold"}]}, {"substance": "VKSVCRT [peptide from phage recovered from liver]", "values": [{"measurement": "% OF MOTIF AMONG ALL CLONES", "setting": "liver", "result": 11, "unit": "%"}]}, {"substance": "LMLPRAD [peptide from phage recovered from adrenal gland]", "values": [{"measurement": "% OF MOTIF AMONG ALL CLONES", "setting": "adrenal gland; ADRENAL GLAND", "result": 11, "unit": "%"}, {"measurement": "adrenal gland/brain homing ratio", "setting": "adrenal gland; ADRENAL GLAND section, adrenal gland as compared to brain", "result": 50}, {"measurement": "enrichment in adrenal gland as compared to brain", "setting": "adrenal gland; mouse, in vivo", "result": 50, "unit": "fold"}]}, {"substance": "SWCEPGWCR [pancreas homing peptide]", "values": [{"measurement": "% OF MOTIF AMONG ALL CLONES", "setting": "pancreas [1]; PANCREAS (value printed on the SKIN heading line)", "result": 9, "unit": "%"}, {"measurement": "pancreas/brain phage ratio", "setting": "pancreas [1]; PANCREAS section, pancreas as compared to brain", "result": 20}, {"measurement": "phage bound to pancreas than to brain", "setting": "pancreas [1]; individually amplified phage", "result": "10 × and up to 20 ×"}, {"measurement": "enrichment of phage to the pancreas as compared to unselected phage", "setting": "pancreas [1]; mouse, in vivo", "result": 22, "unit": "×"}, {"measurement": "selectivity for pancreas over unselected phage and over brain", "setting": "pancreas [1]; mouse, in vivo", "result": 20, "unit": "fold"}, {"measurement": "phage recovered from uterus in comparison to unselected phage", "setting": "uterus; after intravenous injection", "result": 6, "unit": "×"}, {"measurement": "staining of uterus", "setting": "uterus; immunostaining", "result": "some staining of blood vessels within the uterus"}, {"measurement": "immunostaining of pancreas", "setting": "pancreas [2]; 5 min after phage", "result": "staining in the capillaries and larger blood vessels of the exocrine pancreas"}, {"measurement": "staining of lung and skin after pancreas homing phage", "setting": "pancreas [2]; control tissues", "result": "nor was any staining observed in lung and skin"}]}, {"substance": "WRQNMPL [peptide from phage recovered from liver]", "values": [{"measurement": "% OF MOTIF AMONG ALL CLONES", "setting": "liver", "result": 6, "unit": "%"}]}]}
